Patent publication US20260159520A1, “HETEROBIFUNCTIONAL COMPOUNDS AND METHODS OF TREATING DISEASE” (Halda Therapeutics OpCo, Inc., priority 2022, published 2026)

Columns and labels:
Format in all cases: cell-based
[1] = system: T-Rex 293 cell line SC3 cells having increased expression of androgen receptor protein; test: Cellular growth inhibition, T-Rex 293 SC3 cells with doxycycline (increased androgen receptor expression); settings: with 10 ng/mL doxycycline (increased androgen receptor), 72 hours, CellTiter-Glo 2.0
Protocol: (§1) The following types of cells were prepared for this experiment: (i) a T-Rex 293 cell line having increased expression of androgen receptor protein due to exposure to doxycycline and (ii) a T-Rex 293 cell line lacking increased expression of androgen receptor protein. Ability of the test compounds to inhibit proliferation of the foregoing cell types was evaluated according to the procedures set forth below.
(§2) The doxycycline-inducible androgen receptor protein expressing cell line was established using the following protocol: T-Rex 293 cells were purchased from Invitrogen (Cat #R71007) and transfected using Lipofectamine 2000 with the wild-type androgen receptor protein sequence cloned into the pcDNA4/TO vector. Transfected cells were selected using 400 μg/mL Zeocin (Invitrogen Cat #R25001). Following selection, single clones were raised and maintained in Dulbecco's Modified Eagle Medium (DMEM) supplemented with 10% w/w Tetracycline-free fetal bovine serum (FBS) and 250 μg/mL Zeocin. Clones were analyzed for expression of androgen receptor protein in the presence and absence of 10 ng/mL doxycycline (Sigma Cat #D9891), and a single doxycycline-inducible clone (hereinafter “SC3”) was selected for use in downstream assays.
(§3) The SC3 cells were seeded on poly-D-lysine coated, black clear-bottom 384-well plates at 2500/well, in 25 μL Phenol Red Free Dulbecco's Modified Eagle Medium (DMEM) supplemented with 10% w/w charcoal-dextran treated fetal bovine serum (FBS) and 1% w/w pen-strep, with or without 10 ng/mL doxycycline. Pen-Strep is a commercially available mixture of penicillin G and streptomycin, which is used in mammalian cell culture media to prevent bacterial contamination. Phenol Red Free Dulbecco's Modified Eagle Medium (DMEM) supplemented with 10% w/w charcoal-dextran treated fetal bovine serum (FBS) and 1% w/w pen-strep, with or without 10 ng/mL doxycycline is herein referred to as Treatment Medium. Following seeding of cells in the plates, the plates were spun at 300×g for 30 seconds, then equilibrated to room temperature for 30 minutes, and then deposited in a humidified tissue culture incubator maintained at 37° C. with 5% CO2.
(§4) At 24 hours after seeding of the cells, dilutions of test compound were prepared in DMSO and dissolved in Treatment Medium, to achieve a final DMSO concentration of 0.5% w/w, thereby providing the Test Compound Solution. A 25 μL aliquot of the Test Compound Solution was added to cells in the well plates. An equal volume of a solution containing DMSO and Treatment Medium was used as a negative control. Following treatment of cells with Test Compound Solution or said equal volume of a solution containing DMSO and Treatment Medium, the plates were spun at 300×g for 30 seconds, and then left in an incubator for 72 hours.
(§5) At the end of the treatment duration, cell viability was quantified with CellTiter-Glo 2.0 reagent (Promega Cat #G9243). For this purpose, plates were equilibrated to room temperature for 30 minutes, and then 25 μL of CellTiter-Glo 2.0 reagent was added to cells in the plate wells. Plates were then agitated on a shaker for two minutes at 500 rpm and subsequently incubated at room temperature for 10 minutes. Following incubation, the plates were spun at 3000×g for 30 seconds, then sealed with an optical adhesive cover, and luminescence readings were measured with an EnVision Plate Reader.
(§6) Data was normalized using zero luminescence for baseline. A four-parameter non-linear regression curve fit was applied to dose-response data in GraphPad Prism data analysis software to determine the half-maximal growth inhibitory concentration (GI50) for each test compound.

[2] = system: T-Rex 293 cell line SC3 cells lacking increased expression of androgen receptor protein; test: Cellular growth inhibition, T-Rex 293 SC3 cells without doxycycline; settings: not exposed to doxycycline, 72 hours, CellTiter-Glo 2.0
Protocol: as §1, §2, §3, §4, §5, §6

[3] = system: VCaP cells; test: Cellular growth inhibition assay for VCaP cells; settings: Homo sapiens, 72 hours, CellTiter-Glo 2.0
Protocol: VCaP cells were purchased from American Type Cell Culture (ATCC Cat #CRL2876) and then seeded on poly-D-lysine coated, black clear-bottom 384-well plates at 5000/well in 25 μL Dulbecco's Modified Eagle Medium (DMEM) supplemented with 10% w/w Fetal bovine serum (FBS) and 1% w/w Pen-Strep. Pen-Strep is a commercially available mixture of penicillin G and streptomycin, which is used in mammalian cell culture media to prevent bacterial contamination. Dulbecco's Modified Eagle Medium (DMEM) supplemented with 10% w/w fetal bovine serum (FBS) and 1% w/w Pen-Strep is herein referred to as Treatment Medium. Following seeding of cells in the plates, the plates were spun at 300×g for 30 seconds, then equilibrated to room temperature for 30 minutes, and then deposited in a humidified tissue culture incubator maintained at 37° C. with 5% CO2.
as §4
as §5, with “Reader. Data was normalized using zero luminescence for baseline.” for “Reader.”
A four-parameter non-linear regression curve fit was applied to dose-response data in GraphPad Prism data analysis software to determine the half-maximal growth inhibitory concentration (GI50) for each test compound.

[4] = system: T47D cells; test: Cellular growth inhibition assay for T47D cells; settings: Homo sapiens, 72 hours, CellTiter-Glo 2.0
Protocol: T47D cells were purchased from American Type Cell Culture (ATCC Cat #HTB-133) and then seeded on poly-D-lysine coated, black clear-bottom 384-well plates at 3000/well in 25 μL Dulbecco's Modified Eagle Medium (DMEM) supplemented with 10% w/w Fetal bovine serum (FBS), 0.2 units/mL recombinant human insulin (Gibco Cat #12585014), and 1% w/w Pen-Strep. Pen-Strep is a commercially available mixture of penicillin G and streptomycin, which is used in mammalian cell culture media to prevent bacterial contamination. Dulbecco's Modified Eagle Medium (DMEM) supplemented with 10% w/w fetal bovine serum (FBS), 0.2 units/mL recombinant human insulin, and 1% w/w Pen-Strep is herein referred to as Treatment Medium. Following seeding of cells in the plates, the plates were spun at 300×g for 30 seconds, then equilibrated to room temperature for 30 minutes, and then deposited in a humidified tissue culture incubator maintained at 37° C. with 5% CO2.
as §4
as §5, with “Reader (Perkin Elmer).” for “Reader.”
as §6

| Structure (SMILES) | GI50 [1] [nM] | GI50 [2] [nM] | GI50 [3] [nM] | GI50 [4] [nM] |
| --- | --- | --- | --- | --- |
| COc1cc(F)ccc1-c1ccnc2[nH]c(C3CCN(CCOCCOCCOC4CCN(c5ncc(C(=O)N[C@H]6C(C)(C)[C@H](Oc7ccc(C#N)c(Cl)c7)C6(C)C)cn5)CC4)CC3)cc12 [Compound I-67, N-[3-(3-chloro-4-cyano-phenoxy)-2,2,4,4-tetramethyl-cyclobutyl]-2-[4-[2-[2-[2-[4-[4-(4-fluoro-2-methoxy-phenyl)-1H-pyrrolo[2,3-b]pyridin-2-yl]-1-piperidyl]ethoxy]ethoxy]ethoxy]-1-piperidyl]pyrimidine-5-carboxamide] | 100 to 1000 | 1000 to 3500 | > 3500 | 1500 to 3000 |
| CC(C)n1cc(-c2ccnc3[nH]c(C4CCN(CCOCCOCCOC5CCN(c6ncc(C(=O)N[C@H]7C(C)(C)[C@H](Oc8ccc(C#N)c(Cl)c8)C7(C)C)cn6)CC5)CC4)cc23)ccc1=O [Compound I-77] | 100 to 1000 | 100 to 1000 | 100 to 1000 | 500 to 1500 |
| CCc1cnn2c(NCc3ccc(N4CCN(C5CCN(C6CN(c7ncc(C(=O)N[C@H]8C(C)(C)[C@H](Oc9ccc(C#N)c(Cl)c9)C8(C)C)cn7)C6)CC5)CC4)nc3)cc(N3CCCC[C@H]3CCO)nc12 [Compound I-79] | < 100 | < 100 | < 100 | < 500 |
| CCc1cnn2c(NCc3ccc(N4CCC(OCCC5CCN(c6ncc(C(=O)N[C@H]7C(C)(C)[C@H](Oc8ccc(C#N)c(Cl)c8)C7(C)C)cn6)CC5)C4)nc3)cc(N3CCCC[C@H]3CCO)nc12 (some centres unmarked) [Compound I-80] | < 100 | > 3500 | 100 to 1000 | 500 to 1500 |
| CCc1cnn2c(NCc3ccc(N(C)CCCN4CCC(C5CN(c6ncc(C(=O)N[C@H]7C(C)(C)[C@H](Oc8ccc(C#N)c(Cl)c8)C7(C)C)cn6)C5)CC4)nc3)cc(N3CCCC[C@H]3CCO)nc12 [Compound I-82] | 100 to 1000 | 100 to 1000 | 100 to 1000 | 500 to 1500 |
| CCc1cnn2c(NCc3ccc(OCCOC4CCN(c5ncc(C(=O)N[C@H]6C(C)(C)[C@H](Oc7ccc(C#N)c(Cl)c7)C6(C)C)cn5)CC4)nc3)cc(N3CCCC(F)(F)C3)nc12 [Compound I-84, N-[3-(3-chloro-4-cyano-phenoxy)-2,2,4,4-tetramethyl-cyclobutyl]-2-[4-[2-[[5-[[[5-(3,3-difluoro-1-piperidyl)-3-ethyl-pyrazolo[1,5-a]pyrimidin-7-yl]amino]methyl]-2-pyridyl]oxy]ethoxy]-1-piperidyl]pyrimidine-5-carboxamide] | 100 to 1000 | > 3500 | > 3500 | 1500 to 3000 |
| CCc1cnn2c(NCc3ccc(N(C)CCOC4CCN(C5CN(c6ncc(C(=O)N[C@H]7C(C)(C)[C@H](Oc8ccc(C#N)c(Cl)c8)C7(C)C)cn6)C5)CC4)nc3)cc(N3CCCC[C@H]3CCO)nc12 [Compound I-85] | 100 to 1000 | 100 to 1000 | 100 to 1000 | < 500 |
| CC1(C)[C@H](NC(=O)c2cnc(N3CCC(OCCOCCOCCN4C/C=C/CCOc5cccc(c5)-c5ccnc(n5)Nc5cccc(c5)C4)CC3)nc2)C(C)(C)[C@H]1Oc1ccc(C#N)c(Cl)c1 [Compound I-89] | 100 to 1000 | > 3500 | > 3500 | > 3000 |
| CCc1cnn2c(NCc3ccc(OCCN4CCN(CC5CCN(c6ncc(C(=O)N[C@H]7C(C)(C)[C@H](Oc8ccc(C#N)c(Cl)c8)C7(C)C)cn6)CC5)CC4)nc3)cc(N3CCCC(F)(F)C3)nc12 [Compound I-91] | 100 to 1000 | > 3500 | > 3500 | 500 to 1500 |
| CCc1cnn2c(NCc3ccc(OCCCN4CCN(CC5CCN(c6ncc(C(=O)N[C@H]7C(C)(C)[C@H](Oc8ccc(C#N)c(Cl)c8)C7(C)C)cn6)CC5)CC4)nc3)cc(N3CCCC(F)(F)C3)nc12 [Compound I-92] | 100 to 1000 | 1000 to 3500 | 100 to 1000 | 500 to 1500 |
| CCc1cnn2c(NCc3ccc(OCCCCN4CCN(CC5CCN(c6ncc(C(=O)N[C@H]7C(C)(C)[C@H](Oc8ccc(C#N)c(Cl)c8)C7(C)C)cn6)CC5)CC4)nc3)cc(N3CCCC(F)(F)C3)nc12 [Compound I-93] | 100 to 1000 | > 3500 | > 3500 | 500 to 1500 |
